Reference: the supplement of paper PMC10307832

How the values were obtained:
Test in all cases: relative viability (nuclei count vs DMSO), 5 days (fraction); higher = more cells survive
RERF-LC-KJ = system: RERF-LC-KJ
Procedure, shortened: (§1)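 Dosing by pin tool came one day after lung cancer cell lines were seeded in 1536-well plates, using either one drug or a fixed anchor-drug dose plus five library-drug doses (not always all listed) in √10 steps. After 5 days, nuclei were counted on 4× images. Relative viability is treated-well nuclei count divided by vehicle-well nuclei count, and values are medians of duplicate plates.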

NCI-H1755 = system: NCI-H1755
Procedure, shortened: as §1

LC-2-ad = system: LC-2-ad
Procedure, shortened: as §1

A-427 = system: A-427
Procedure, shortened: as §1

NCI-H23 = system: NCI-H23
Procedure, shortened: as §1

NCI-H2170 = system: NCI-H2170
Procedure, shortened: as §1

UMC-11 = system: UMC-11
Procedure, shortened: as §1

NCI-H2347 = system: NCI-H2347
Procedure, shortened: as §1

LCLC-103H = system: LCLC-103H
Procedure, shortened: as §1

NCI-H1734 = system: NCI-H1734
Procedure, shortened: as §1

NCI-H1915 = system: NCI-H1915
Procedure, shortened: as §1

SMILES: Cc1cn(-c2cc(NC(=O)c3ccc(C)c(Nc4nccc(-c5cccnc5)n4)c3)cc(C(F)(F)F)c2)cn1 [Nilotinib] + Cc1nc(NC(=O)N2CCC[C@H]2C(N)=O)sc1-c1ccnc(C(C)(C)C(F)(F)F)c1 [Alpelisib] (partner 2 µM)
- relative viability (RERF-LC-KJ; first compound 0.001 µM): 0.788
- relative viability (RERF-LC-KJ; first compound 0.003162 µM): 0.831
- relative viability (RERF-LC-KJ; first compound 0.01 µM): 0.838
- relative viability (RERF-LC-KJ; first compound 0.03162 µM): 0.727
- relative viability (RERF-LC-KJ; first compound 0.1 µM): 0.777
- relative viability (NCI-H1755; first compound 0.001 µM): 0.862
- relative viability (NCI-H1755; first compound 0.003162 µM): 1.13
- relative viability (NCI-H1755; first compound 0.01 µM): 0.982
- relative viability (NCI-H1755; first compound 0.03162 µM): 0.707
- relative viability (NCI-H1755; first compound 0.1 µM): 0.785
- relative viability (LC-2-ad; first compound 0.001 µM): 0.876
- relative viability (LC-2-ad; first compound 0.003162 µM): 1
- relative viability (LC-2-ad; first compound 0.01 µM): 1.03
- relative viability (LC-2-ad; first compound 0.03162 µM): 0.918
- relative viability (LC-2-ad; first compound 0.1 µM): 0.833
- relative viability (A-427; first compound 0.001 µM): 1.07
- relative viability (A-427; first compound 0.01 µM): 1.13
- relative viability (A-427; first compound 0.03162 µM): 1.06
- relative viability (A-427; first compound 0.1 µM): 0.808
- relative viability (NCI-H23; first compound 0.001 µM): 0.654
- relative viability (NCI-H23; first compound 0.003162 µM): 0.784
- relative viability (NCI-H23; first compound 0.01 µM): 0.773
- relative viability (NCI-H23; first compound 0.03162 µM): 0.536
- relative viability (NCI-H23; first compound 0.1 µM): 0.665
- relative viability (NCI-H2170; first compound 0.001 µM): 0.865
- relative viability (NCI-H2170; first compound 0.003162 µM): 0.916
- relative viability (NCI-H2170; first compound 0.01 µM): 1.15
- relative viability (NCI-H2170; first compound 0.03162 µM): 0.767
- relative viability (NCI-H2170; first compound 0.1 µM): 1.07
- relative viability (UMC-11; first compound 0.001 µM): 0.928
- relative viability (UMC-11; first compound 0.003162 µM): 1.15
- relative viability (UMC-11; first compound 0.01 µM): 1.07
- relative viability (UMC-11; first compound 0.1 µM): 1.22
- relative viability (NCI-H2347; first compound 0.001 µM): 1.01
- relative viability (NCI-H2347; first compound 0.003162 µM): 1.12
- relative viability (NCI-H2347; first compound 0.01 µM): 1.03
- relative viability (NCI-H2347; first compound 0.03162 µM): 0.981
- relative viability (NCI-H2347; first compound 0.1 µM): 1.01
- relative viability (LCLC-103H; first compound 0.001 µM): 1.03
- relative viability (LCLC-103H; first compound 0.003162 µM): 1.09
- relative viability (LCLC-103H; first compound 0.03162 µM): 1
- relative viability (LCLC-103H; first compound 0.1 µM): 0.956
- relative viability (NCI-H1734; first compound 0.001 µM): 0.692
- relative viability (NCI-H1734; first compound 0.003162 µM): 0.638
- relative viability (NCI-H1734; first compound 0.01 µM): 0.682
- relative viability (NCI-H1734; first compound 0.03162 µM): 0.551
- relative viability (NCI-H1734; first compound 0.1 µM): 0.507
- relative viability (NCI-H1915; first compound 0.001 µM): 0.981
- relative viability (NCI-H1915; first compound 0.003162 µM): 1.1
- relative viability (NCI-H1915; first compound 0.01 µM): 1.14
- relative viability (NCI-H1915; first compound 0.03162 µM): 1.01
- relative viability (NCI-H1915; first compound 0.1 µM): 0.981
